# Patent US20210283204A1, “Lin28a ACTIVATOR AND USE THEREFOR” (TES Holdings CO., LTD., priority 2016, published 2021)
# Test system: Lin28a
# Experiment: Lin28a expression induction in mouse vascular endothelial cell line TKD2 cell (RT-PCR, agarose gel)
# Type: cell-based
# Conditions: 100 μg/mL, cultured for 5 days, FIG. 1
# Procedure: Mouse vascular endothelial cell line TKD2 cell (National Institute of Biomedical Innovation, Health, and Nutrition, distributed from JCRB Cell Bank, Cell number: IF050374) was sown in advance in a 6-well plate to be 4×10^4 cells/well, and cultured overnight at 33° C. in 5% CO2 environment.
# Subsequently, on the day after the date when the mouse vascular endothelial cell line TKD2 cell was sown, the exocrine secretion of Saccharomyces boulardii prepared in (1) was added to the culture medium to reach a final concentration of 100 μg/mL, and cultured for 5 days while performing addition. After the addition, the culture medium was not exchanged at all. […]
# After culturing, the cell was isolated and recovered by using 0.25% of Trypsin-EDTA solution (manufactured by ThermoFisher Corporation, 25200056). […] From the total RNA, cDNA was produced by using ImProm-II (registered trademark) reverse Transcription System (Promega A3801), and expression of Lin28a was monitored by PCR using primers shown in the following Table 1. […]
substance,measurement,value
ganglioside,expression of Lin28a,expression of Lin28a was not induced
